Laboratory results published in US10723711B2, “1,1,1-trifluoro-3-hydroxypropan-2-yl carbamate derivatives and 1,1,1-trifluoro-4-hydroxybutan-2-yl carbamate derivatives as MAGL inhibitors” (PFIZER INC., priority 2015, dated 2020).
Where two headings read alike, the source gives them in different places.

Assays:
[1] = molecular target: T1, human recombinant FAAH (Homo sapiens, UniProt O00519); assay: FAAH inhibition enzymatic assay, fluorescent substrate Arachidonoyl-AMC, 30 minute incubation; format: biochemical; conditions: T = 30 min (30 minute incubation); geometric mean of 2-4 determinations unless otherwise indicated
T1 construct: purchased Cayman 10010183
T1 sequence (O00519 1-579): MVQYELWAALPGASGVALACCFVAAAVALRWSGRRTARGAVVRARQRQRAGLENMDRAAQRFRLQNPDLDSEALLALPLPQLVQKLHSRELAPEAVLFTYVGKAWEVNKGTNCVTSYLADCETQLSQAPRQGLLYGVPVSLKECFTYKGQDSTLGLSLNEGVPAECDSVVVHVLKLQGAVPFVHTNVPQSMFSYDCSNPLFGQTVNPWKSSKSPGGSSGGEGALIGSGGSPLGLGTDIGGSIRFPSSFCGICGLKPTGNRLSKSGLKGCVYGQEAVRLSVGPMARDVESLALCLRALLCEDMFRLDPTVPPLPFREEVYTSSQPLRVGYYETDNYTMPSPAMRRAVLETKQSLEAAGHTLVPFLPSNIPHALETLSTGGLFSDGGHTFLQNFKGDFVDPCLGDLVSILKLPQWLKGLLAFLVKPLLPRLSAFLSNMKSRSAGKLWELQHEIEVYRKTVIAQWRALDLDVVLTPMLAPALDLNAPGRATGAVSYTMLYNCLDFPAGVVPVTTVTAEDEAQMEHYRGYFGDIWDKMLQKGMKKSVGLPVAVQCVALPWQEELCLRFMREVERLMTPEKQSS

[2] = molecular target: T2, human recombinant Monoacylglycerol Lipase (Homo sapiens, UniProt Q99685); assay: MAGL inhibition enzymatic assay, fluorogenic substrate 7-HCA, IC50 at T=0 min or after 30 minute incubation (T=30 min); format: biochemical; conditions: geometric mean of 2-4 determinations unless otherwise indicated
T2 sequence (Q99685 1-303): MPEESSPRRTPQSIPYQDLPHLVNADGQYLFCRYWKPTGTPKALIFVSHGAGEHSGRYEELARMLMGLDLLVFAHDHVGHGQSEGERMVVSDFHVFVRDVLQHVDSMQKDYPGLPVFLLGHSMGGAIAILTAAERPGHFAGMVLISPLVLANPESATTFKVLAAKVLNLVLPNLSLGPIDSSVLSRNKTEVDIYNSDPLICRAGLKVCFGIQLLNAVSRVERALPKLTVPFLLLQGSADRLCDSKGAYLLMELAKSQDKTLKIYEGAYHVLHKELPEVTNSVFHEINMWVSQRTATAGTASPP
Description: An equal volume of 7-HCA in assay buffer with 10% DMSO was added either immediately (T=0 min) or after a 30 minute incubation (T=30 min) to initiate the reaction. […] After these dilutions, the final concentration of the test compound ranged from 3 μM to 0.03 nM. […] IC50 values were generated based on a four parameter fit model using ABASE software from IDBS.

[3] = molecular target: T2, human recombinant Monoacylglycerol Lipase; assay: MAGL inactivation, enzyme progress curves, kinact/KI; format: biochemical; conditions: from enzyme progress curves, T = 0 min protocol; geometric mean of 2-4 determinations unless otherwise indicated
Procedure, shortened: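 Human recombinant MAGL ([…]) with compound, 7-HCA substrate (final 5 μM) added immediately (T=0 min), in pH 7.4 HEPES buffer with 0.1% Triton X-100 and 25% glycerin. Fluorescence (Ex/Em 340/465) was read every minute over 60 min, giving progress curves at decreasing compound concentrations (final 3 μM to 0.03 nM).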

[4] = Prodrug in vivo pharmacokinetics in rats after intravenous administration (LC-MS-MS of prodrug and parent); conditions: Wistar Hann rats; for Cmax: Wistar Hann, rat, iv
Description: (§1) Pharmacokinetic parameters derived from the plasma analytical data were determined using Watson LIMS 7.2.003 (Thermo Fisher Scientific, Waltham, Mass.).

[5] = Prodrug in vivo pharmacokinetics in dogs after intravenous administration (LC-MS-MS of prodrug and parent); conditions: Beagle dogs
Description: as §1

[6] = T = 0 min (substrate added immediately), read-out: MAGL (T = 0 min) IC50
[7] = T = 30 min (30 minute incubation), read-out: MAGL (T = 30 min) IC50
[8] = Example 6 (parent) in plasma, IV Example 32 at 2 mg/kg, Mean
[9] = Example 6 (parent) in plasma, IV Example 32 at 2 mg/kg, Rat 03
[10] = Example 6 (parent) in plasma, IV Example 32 at 2 mg/kg, Rat 04
[11] = Example 6 (parent) in plasma, IV Example 32 at 1 mg/kg, Dog 03
[12] = Example 6 (parent) in plasma, IV Example 32 at 1 mg/kg, Dog 04
[13] = Example 6 (parent) in plasma, IV Example 32 at 1 mg/kg, Mean
[14] = Example 9 (parent) in plasma, IV Example 31 at 1.48 mg/kg, Mean
[15] = Example 9 (parent) in plasma, IV Example 31 at 1.48 mg/kg, Rat 01
[16] = Example 9 (parent) in plasma, IV Example 31 at 1.48 mg/kg, Rat 02
[17] = Example 9 (parent) in plasma, IV Example 31 at 0.7 mg/kg, Dog 01
[18] = Example 9 (parent) in plasma, IV Example 31 at 0.7 mg/kg, Dog 02
[19] = Example 9 (parent) in plasma, IV Example 31 at 0.7 mg/kg, Mean

With `O=C(O[C@H](CO)C(F)(F)F)N1CCC2(CC1)CN(S(=O)(=O)c1ccc(F)cc1)CCO2` [Example 6, (2R)-1,1,1-Trifluoro-3-hydroxypropan-2-yl 4-[(4-fluorophenyl)sulfonyl]-1-oxa-4,9-diazaspiro[5.5]undecane-9-carboxylate] the melting point was 132 °C, the IC50 [1] was > 30000 nM and the IC50 [2, 6] was 83 nM. For the same compound, the IC50 [2, 7] was 7 nM, the “MAGL kinact/KI” value [3] was 13406 1/s per M and the “% AUC Extrap” value [4, 8] was 3.46%. The AUC [4, 8] was 158 ng·h/mL, the “AUC Extrap” value [4, 8] was 162 ng·h/mL and the “Rate Constant” value [4, 8] was 2.22 h⁻¹. For the same compound, the Tmax [4, 8] was 3.48 min, the T½ [4, 8] was 20.5 min and the “% AUC Extrap” value [4, 9] was 6.04%. For the same compound, the AUC [4, 9] was 102 ng·h/mL, the “AUC Extrap” value [4, 9] was 109 ng·h/mL and the “Rate Constant” value [4, 9] was 2.86 h⁻¹. The Tmax [4, 9] was 4.98 min, the T½ [4, 9] was 14.5 min and the “% AUC Extrap” value [4, 10] was 0.880%. The AUC [4, 10] was 213 ng·h/mL, the “AUC Extrap” value [4, 10] was 215 ng·h/mL and the “Rate Constant” value [4, 10] was 1.57 h⁻¹. It also gave a Tmax [4, 10] of 1.98 min, a T½ [4, 10] of 26.5 min and a Cmax ([4]; plasma, 2 mg/kg, Example 6 (parent) in plasma, IV Example 32 at 2 mg/kg, Mean) of 309 ng/mL. The Cmax ([4]; plasma, 2 mg/kg, Example 6 (parent) in plasma, IV Example 32 at 2 mg/kg, Rat 03) was 234 ng/mL, the Cmax ([4]; plasma, 2 mg/kg, Example 6 (parent) in plasma, IV Example 32 at 2 mg/kg, Rat 04) was 384 ng/mL and the AUC [5, 11] was 591 ng·h/mL. For the same compound, the “AUC Extrap” value [5, 11] was 595 ng·h/mL, the Tmax [5, 11] was 4.98 min and the T½ [5, 11] was 246 min. The AUC [5, 12] was 705 ng·h/mL, the “AUC Extrap” value [5, 12] was 710 ng·h/mL and the Tmax [5, 12] was 4.98 min. For the same compound, the T½ [5, 12] was 322 min, the AUC [5, 13] was 648 ng·h/mL and the “AUC Extrap” value [5, 13] was 653 ng·h/mL. The Tmax [5, 13] was 4.98 min and the T½ [5, 13] was 284 min.
With `O=C(O[C@H](CO)C(F)(F)F)N1CCC2(CC1)C[C@@H](NS(=O)(=O)c1ccccc1)CO2` [Example 9, (2R)-1,1,1-Trifluoro-3-hydroxypropan-2-yl (3R)-3-[(phenylsulfonyl)amino]-1-oxa-8-azaspiro[4.5]decane-8-carboxylate] the IC50 [1] was > 30000 nM, the IC50 [2, 6] was 40 nM and the IC50 [2, 7] was 4 nM. The “MAGL kinact/KI” value [3] was 8588 1/s per M, the “% AUC Extrap” value [4, 14] was 2.46% and the AUC [4, 14] was 146 ng·h/mL. For the same compound, the “AUC Extrap” value [4, 14] was 150 ng·h/mL, the “Rate Constant” value [4, 14] was 0.500 h⁻¹ and the Tmax [4, 14] was 4.98 min. The T½ [4, 14] was 84.6 min, the “% AUC Extrap” value [4, 15] was 2.08% and the AUC [4, 15] was 118 ng·h/mL. For the same compound, the “AUC Extrap” value [4, 15] was 121 ng·h/mL, the “Rate Constant” value [4, 15] was 0.560 h⁻¹ and the Tmax [4, 15] was 4.98 min. The T½ [4, 15] was 74.4 min, the “% AUC Extrap” value [4, 16] was 2.83% and the AUC [4, 16] was 173 ng·h/mL. For the same compound, the “AUC Extrap” value [4, 16] was 178 ng·h/mL, the “Rate Constant” value [4, 16] was 0.440 h⁻¹ and the Tmax [4, 16] was 4.98 min. It also gave a T½ [4, 16] of 94.2 min, a Cmax ([4]; in vivo, 1.48 mg/kg, Example 9 (parent) in plasma, IV Example 31 at 1.48 mg/kg, Mean) of 316 ng/mL and a Cmax ([4]; in vivo, 1.48 mg/kg, Example 9 (parent) in plasma, IV Example 31 at 1.48 mg/kg, Rat 01) of 253 ng/mL. For the same compound, the Cmax ([4]; in vivo, 1.48 mg/kg, Example 9 (parent) in plasma, IV Example 31 at 1.48 mg/kg, Rat 02) was 378 ng/mL, the AUC [5, 17] was 1350 ng·h/mL and the “AUC Extrap” value [5, 17] was 1550 ng·h/mL. It also gave a Tmax [5, 17] of 15 min, a T½ [5, 17] of 642 min and an AUC [5, 18] of 1460 ng·h/mL. The “AUC Extrap” value [5, 18] was 1560 ng·h/mL, the Tmax [5, 18] was 4.98 min and the T½ [5, 18] was 482 min. The AUC [5, 19] was 1410 ng·h/mL, the “AUC Extrap” value [5, 19] was 1560 ng·h/mL and the Tmax [5, 19] was 10.2 min. The T½ [5, 19] was 562 min.
